From ChEMBL document CHEMBL4184157, “Phenoxypropanolamine derivatives as selective inhibitors of the 20S proteasome β1 and β5 subunits” (Bioorg Med Chem Lett, 2017)
Calls of active or inactive are those of the source. No cut-off for these calls is given here.

How the values were obtained:
[1] = Inhibition of chymotrypsin-like activity of rabbit erythrocyte 20S proteasome beta5 subunit using Suc-LLVY-AMC as substrate preincubated for 15 mins followed by substrate addition measured after 45 mins by fluorescence assay; set-up: species or system Oryctolagus cuniculus
Oryctolagus cuniculus [2] = organism: Oryctolagus cuniculus; assay: Inhibition of trypsin-like activity of rabbit erythrocyte 20S proteasome beta2 subunit at 100 uM using BocLRR-AMC as substrate preincubated for 5 mins followed by substrate addition measured after 45 mins by fluorescence assay
Oryctolagus cuniculus [3] = organism: Oryctolagus cuniculus; assay: Inhibition of caspase-like activity of rabbit erythrocyte 20S proteasome beta1 subunit at 100 uM using Z-LLE-betaNA as substrate preincubated for 15 mins followed by substrate addition measured after 45 mins by fluorescence assay
[4] = Inhibition of caspase-like activity of rabbit erythrocyte 20S proteasome beta1 subunit using Z-LLE-betaNA as substrate preincubated for 15 mins followed by substrate addition measured after 45 mins by fluorescence assay; set-up: species or system Oryctolagus cuniculus
[5] = target: T1, Calpain-1 catalytic subunit (Homo sapiens) (UniProt P07384); assay: Inhibition of human erythrocyte calpain 1 protease using Suc-LLVY-AMC as substrate by fluorescence assay
T1 sequence (whole entry): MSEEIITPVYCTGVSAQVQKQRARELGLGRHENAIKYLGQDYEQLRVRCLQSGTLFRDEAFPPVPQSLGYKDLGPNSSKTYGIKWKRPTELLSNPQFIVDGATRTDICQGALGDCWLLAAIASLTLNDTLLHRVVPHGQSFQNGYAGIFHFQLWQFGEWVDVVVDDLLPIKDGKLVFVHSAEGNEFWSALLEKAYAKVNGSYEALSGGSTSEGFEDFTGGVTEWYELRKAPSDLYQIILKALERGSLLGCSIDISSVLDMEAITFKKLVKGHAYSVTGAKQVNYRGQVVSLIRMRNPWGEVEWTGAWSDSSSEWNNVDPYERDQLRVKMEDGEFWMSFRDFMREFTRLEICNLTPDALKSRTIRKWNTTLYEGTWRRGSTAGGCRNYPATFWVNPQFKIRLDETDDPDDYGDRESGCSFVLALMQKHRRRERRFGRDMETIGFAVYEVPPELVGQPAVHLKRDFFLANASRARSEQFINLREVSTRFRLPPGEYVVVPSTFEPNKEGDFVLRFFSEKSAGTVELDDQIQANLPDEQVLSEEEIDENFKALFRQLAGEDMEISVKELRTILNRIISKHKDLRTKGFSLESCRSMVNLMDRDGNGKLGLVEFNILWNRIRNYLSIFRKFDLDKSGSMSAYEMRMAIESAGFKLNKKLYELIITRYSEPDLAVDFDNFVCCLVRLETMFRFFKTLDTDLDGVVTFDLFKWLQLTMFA

[6] = target: Cathepsin B (Homo sapiens) (UniProt P07858); assay: Inhibition of human hepatocyte cathepsin B protease using Z-RR-AMC as substrate by fluorescence assay
HeLa [7] = assay: Antiproliferative activity against human HeLa cells assessed as fragmented nuclei at 50 uM after 72 hrs by microscopic method; type: functional, cell-based
HeLa [8] = assay: Antiproliferative activity against human HeLa cells at 10 uM after 72 hrs by microscopic method; type: functional, cell-based
Rattus norvegicus [9] = assay: In vivo antiproliferative activity against ip dosed Wistar rat bone marrow cells from femora assessed as inhibition of cell division measured by counting metaphase plates by light microscopic method; type: functional, organism-based
HeLa [10] = assay: Antiproliferative activity against human HeLa cells after 72 hrs by XTT assay; type: functional, cell-based
HeLa [11] = assay: Cytotoxicity against human HeLa cells at 10 uM after 72 hrs by XTT assay; type: functional, cell-based
Rattus norvegicus [12] = assay: In vivo antiproliferative activity against Wistar rat bone marrow cells from femora assessed as inhibition of cell division measured by counting metaphase plates administered at 2 mg per rat, ip by light microscopic method; set-up: scale not given: the % may be the effect or the level left
Rattus norvegicus [13] = assay: In vivo antiproliferative activity against Wistar rat bone marrow cells from femora assessed as inhibition of cell division measured by counting metaphase plates administered at 0.2 mg per rat, ip by light microscopic method; set-up: scale not given: the % may be the effect or the level left
Oryctolagus cuniculus [14] = organism: Oryctolagus cuniculus; assay: Inhibition of chymotrypsin-like activity of rabbit erythrocyte 20S proteasome beta5 subunit at 100 uM using Suc-LLVY-AMC as substrate preincubated for 15 mins followed by substrate addition measured after 45 mins by fluorescence assay

## OC(CNCC1(c2cccs2)CCOCC1)COc1ccc(Cl)cc1 (stereo not drawn)
[1]
  IC50: 40 µM
Oryctolagus cuniculus [2]
  inhibition: 53%
Oryctolagus cuniculus [3]
  inhibition: inactive

## OC(CNCC1(c2cccs2)CCCC1)COc1ccccc1 (stereo not drawn)
[1]
  IC50: 19.3 µM
[4]
  IC50: 66.5 µM
Oryctolagus cuniculus [2]
  inhibition: 41%
[5]
  inhibition: inactive
[6]
  inhibition: inactive

## Cc1ccc(OCC(O)CNCC2(c3cccs3)CCOCC2)cc1 (stereo not drawn)
[1]
  IC50: 80 µM
Oryctolagus cuniculus [2]
  inhibition: 49%
Oryctolagus cuniculus [3]
  inhibition: inactive

## OC(CNCC1(c2cccs2)CCCC1)COc1ccc(Cl)cc1 (stereo not drawn)
[1]
  IC50: 15.8 µM
[4]
  IC50: 18 µM
Oryctolagus cuniculus [2]
  inhibition: 42%
[5]
  inhibition: inactive
[6]
  inhibition: inactive
HeLa [7]
  Activity: Active
HeLa [8]
  Activity: inactive
Rattus norvegicus [9]
  Activity: Dose-dependent effect
HeLa [10]
  Activity: Dose-dependent effect
HeLa [11]
  Activity: inactive
Rattus norvegicus [12]
  Activity: 75%
Rattus norvegicus [13]
  Activity: 50%

## OC(CNCC1(c2cccs2)CCOCC1)COc1ccccc1 (stereo not drawn)
Oryctolagus cuniculus [14]
  inhibition: 31%
Oryctolagus cuniculus [2]
  inhibition: 39%
Oryctolagus cuniculus [3]
  inhibition: 36%

## COc1ccccc1OCC(O)CNCC1(c2cccs2)CCOCC1 (stereo not drawn)
Oryctolagus cuniculus [14]
  inhibition: inactive
Oryctolagus cuniculus [2]
  inhibition: inactive
Oryctolagus cuniculus [3]
  inhibition: inactive

## NCC1(c2cccs2)CCCC1
Oryctolagus cuniculus [14]
  inhibition: 26%
Oryctolagus cuniculus [2]
  inhibition: inactive
Oryctolagus cuniculus [3]
  inhibition: inactive

## O=C(O)CSc1cc(NS(=O)(=O)c2cccs2)c2ccccc2c1O
[1]
  IC50: 3 µM

## CC1(C)OC(=O)c2c1ccn(CCc1ccccc1)c2=O
[4]
  IC50: 48 µM

## COc1ccccc1OCC(O)CNCC1(c2cccs2)CCCC1 (stereo not drawn)
[1]
  IC50: 37.2 µM
[4]
  IC50: 36 µM
Oryctolagus cuniculus [2]
  inhibition: 48%

## Cc1ccc(OCC(O)CNCC2(c3cccs3)CCCC2)cc1 (stereo not drawn)
[1]
  IC50: 15.4 µM
[4]
  IC50: 24.2 µM
Oryctolagus cuniculus [2]
  inhibition: 38%

## NCC1(c2cccs2)CCCCC1
Oryctolagus cuniculus [14]
  inhibition: inactive
Oryctolagus cuniculus [2]
  inhibition: inactive
Oryctolagus cuniculus [3]
  inhibition: inactive

## OC(CNCC1(c2cccs2)CCCCC1)COc1ccc(Cl)cc1 (stereo not drawn)
[1]
  IC50: 18 µM
[4]
  IC50: 12.8 µM
Oryctolagus cuniculus [2]
  inhibition: inactive

## OC(CNCC1(c2cccs2)CCCCC1)COc1ccccc1 (stereo not drawn)
[1]
  IC50: 14.9 µM
[4]
  IC50: 18.1 µM
Oryctolagus cuniculus [2]
  inhibition: inactive

## NCC1(c2cccs2)CCOCC1
Oryctolagus cuniculus [14]
  inhibition: inactive
Oryctolagus cuniculus [2]
  inhibition: inactive
Oryctolagus cuniculus [3]
  inhibition: inactive

## COc1ccccc1OCC(O)CNCC1(c2cccs2)CCCCC1 (stereo not drawn)
[1]
  IC50: 17.1 µM
[4]
  IC50: 22 µM
Oryctolagus cuniculus [2]
  inhibition: 40%

## Cc1ccc(OCC(O)CNCC2(c3cccs3)CCCCC2)cc1 (stereo not drawn)
[1]
  IC50: 15.5 µM
[4]
  IC50: 30 µM
Oryctolagus cuniculus [2]
  inhibition: 36%
